These compounds were tested against T1, dopamine D4 receptor (Homo sapiens, UniProt P21917) (assay: binding behaviour at the dopamine D4 receptor, [3H]-spiperone displacement in D4-CHO cell membranes). Conditions: not given.
T1 construct: expressed in transfected cells; host or cells: CHO (Chinese Hamster Ovary) cells, D4-CHO, crude membranes
T1 sequence (P21917 1-419): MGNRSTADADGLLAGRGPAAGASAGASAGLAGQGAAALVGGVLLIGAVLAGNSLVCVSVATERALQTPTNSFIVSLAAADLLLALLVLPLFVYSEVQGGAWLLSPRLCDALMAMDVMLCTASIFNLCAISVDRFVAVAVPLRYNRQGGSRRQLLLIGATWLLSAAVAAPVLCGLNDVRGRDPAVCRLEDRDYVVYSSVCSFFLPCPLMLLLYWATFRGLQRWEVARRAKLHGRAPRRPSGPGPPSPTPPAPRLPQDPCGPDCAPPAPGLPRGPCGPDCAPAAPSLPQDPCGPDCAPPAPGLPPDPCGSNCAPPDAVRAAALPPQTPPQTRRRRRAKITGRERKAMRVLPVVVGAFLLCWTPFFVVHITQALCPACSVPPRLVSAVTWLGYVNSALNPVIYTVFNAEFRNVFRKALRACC
Experimental: The compounds were characterized by their binding behaviour at the D4 receptor.
CHO cells (Chinese Hamster Ovary) were used in the test. Crude membranes were isolated by ultracentrifugation from D4 -CHO and D2 -CHO cells and were stored at -80° C. After thawing and homogenizing in a buffer solution (50 mM Tris, 1 mM EDTA, 5 mM KCl, 1.5 mM CaCl2, 4 mM MgCl2, pH 7.4) they were incubated at room temperature for 90 minutes with 200 pM [3H]-spiperone and an increasing concentration (1×10^-11 M to 1×10^-4 M) of the test compound. A non-specific binding was established by incubating in the presence of 1×10^-5 M (+)-butaclamol. The unbound radioligand was removed by filtration through a GF/C glass filter and the bound radioactivity was determined by scintillation in a Packard TopCount.
It was determined using :^3 H-spiperone. The calculation of the value was effected with ligand.

| SMILES | Ki [nM] |
| --- | --- |
| Cc1ncc(CN2CC=C(c3ccc(Cl)cc3)CC2)c(N)n1 [Example 16, 5-[4-(4-chloro-phenyl)-3,6-dihydro-2H-pyridin-1-ylmethyl]-2-methyl-pyrimidin-4-ylamine] | 4.7 |
| Cc1ncc(CN2CC=C(c3ccc(F)cc3)CC2)c(N)n1 [Example 15, 5-[4-(4-Fluoro-phenyl)-3,6-dihydro-2H-pyridin-1-ylmethyl]-2-methyl-pyrimidin-4-ylamine] | 9.3 |
| Cc1ncc(CN2CC=C(c3ccccc3)CC2)c(N)n1 [Example 14, 5-(4-Phenyl-3,6-dihydro-2H-pyridin-1-ylmethyl)-2-methyl-pyrimidin-4-ylamine] | 8.3 |
| Nc1ncc(CN2CC=C(c3ccccc3)CC2)c(N)n1 [Example 42, 5-(4-Phenyl-3,6-dihydro-2H-pyridin-1-ylmethyl)-pyrimidine-2,4-diamine] | 14 |
| COc1ccc(C2=CCN(Cc3cnc(C)nc3N)CC2)cc1 [Example 17, 5-[4-(4-Methoxy-phenyl)-3,6-dihydro-2H-pyridin-1-ylmethyl]-2-methyl-pyrimidin-4-ylamine] | 5.4 |
| Cc1ncc(CN2CCC3=C(CCCC3)C2)c(N)n1 [Example 24, 5-(3,4,5,6,7,8-Hexahydro-1H-isoquinolin-2-ylmethyl)-2-methyl-pyrimidin-4-ylamine] | 7.8 |

Same assay, conditions: [3H]-spiperone 200 pM; crude membranes of D4-CHO cells; room temperature, 90 minutes, pH 7.4; non-specific binding with 1×10^-5 M (+)-butaclamol; read-out: Affinity to dopamine D4 receptors, Ki

| SMILES | Ki [nM] |
| --- | --- |
| Cc1ncc(CN2CCN(c3ccc(Cl)cc3)CC2)c(N)n1 [Example 3, 5-[4-(4-Chloro-phenyl)-piperazin-1-ylmethyl]-2-methyl-pyrimidin-4-ylamine] | 33 |
| Cc1ncc(CN2CCN(c3cccc(Cl)c3)CC2)c(N)n1 [Example 7, 5-[4-(3-chloro-phenyl)-piperazin-1-ylmethyl]-2-methyl-pyrimidin-4-ylamine] | 28 |

The next lines start with the values.

| Ki [nM] | SMILES |
| --- | --- |
| 14 | CCCc1ncc(CN2CCN(c3ccccc3OC)CC2)c(N)n1 [Example 33, 5-[4-(2-Methoxy-phenyl)-piperazin-1-ylmethyl]-2-propyl-pyrimidin-4-ylamine] |
| 0.4 | Cc1ncc(CN2CCc3cc(-c4ccccc4)ccc3C2)c(N)n1 [Example 19, 2-Methyl-5-(6-phenyl-3,4-dihydro-1H-isoquinolin-2-ylmethyl)-pyrimidin-4-ylamine] |
| 6.2 | Cc1ncc(CN2CCc3ccc(-c4ccccc4)cc3C2)c(N)n1 [Example 21, 2-Methyl-5-(7-phenyl-3,4-dihydro-1H-isoquinolin-2-ylmethyl)-pyrimidin-4-ylamine] |
| 0.9 | Cc1ncc(CN2CC=C(/C=C/c3ccccc3)CC2)c(N)n1 [Example 29, (E)-2-Methyl-5-(4-styryl-3,6-dihydro-2H-pyridin-1-ylmethyl)-pyrimidin-4-ylamine] |
| 1.3 | Cc1ncc(CN2CC=C(CCc3ccccc3)CC2)c(N)n1 [Example 28, 2-Methyl-5-(4-phenethyl-3,6-dihydro-2H-pyridin-1-ylmethyl)-pyrimidin-4-ylamine] |
| 23 | Cc1ncc(CN2CCc3ccc(OCc4ccccc4)cc3C2)c(N)n1 [Example 22, 5-(7-benzyloxy-3,4-dihydro-1H-isoquinolin-2-ylmethyl)-2-methyl-pyrimidin-4-ylamine] |
| 30 | COc1ccccc1N1CCN(Cc2cnc(N)nc2N)CC1 [Example 41, 5-[4-(2-Methoxy-phenyl)-piperazin-1-ylmethyl]-pyrimidine-2,4-diamine] |

Reference: patent US5688798A, “Pyrimidine compounds” (Hoffmann-La Roche Inc., priority 1995, dated 1997)
